Measured values taken from patent publication EP0603240B1, “SAFENING HERBICIDAL PYRAZOLYLSULFONYLUREAS” (priority 1991, dated 1993).
Where two headings read alike, the source gives them in different places.

How the values were obtained:
Type in all cases: in vivo
[1] = test system: barnyardgrass (Echinochloa crusgalli); assay: Example 6, Procedure II: Herbicide No. 1 + alachlor (No. 7) with antidotes
How it was run: (§1)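 Herbicide No. 1 plus alachlor, with or without antidote, was applied in acetone and mixed into a silt loam soil layer covering corn and weed seedbeds. Containers received 0.6 cm overhead irrigation, then greenhouse sub-irrigation. Injury was rated as percent, averaged over duplicates; antidote effect is the injury difference without and with antidote.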

[2] = test system: velvetleaf (Abutilon theophrasti); assay: as above
How it was run: as §1

[3] = test system: barnyardgrass (Echinochloa crusgalli); assay: Example 10, Procedure II: Herbicide No. 1 + propachlor (No. 5) with antidotes; details: no antidote
How it was run: (§2)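 Herbicide No. 1 plus propachlor and antidote, each in acetone, incorporated into silt loam cover soil over seeded corn/weed beds; untreated and herbicide-only controls included. Initial overhead irrigation equal to 0.6 cm rainfall, then greenhouse sub-irrigation. Response scored as percent injury; safening taken as injury difference without versus with antidote.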

[4] = test system: velvetleaf (Abutilon theophrasti); assay: as above; details: no antidote
How it was run: as §2

[5] = test system: barnyardgrass (Echinochloa crusgalli); assay: Example 11, Procedure II: Herbicide No. 1 + metazachlor (No. 14) with antidotes; details: no antidote
[6] = test system: velvetleaf (Abutilon theophrasti); assay: as above; details: no antidote
[7] = test system: Giant foxtail (Setaria fabergi); assay: Example 24, Procedure II: Herbicide No. 1 + co-herbicides Nos. 4, 6, 7, 12 with Antidote Nos. 15 and 17-21; details: Setaria
How it was run: (§3)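 Greenhouse pots, herbicide No. 1 plus co-herbicides and antidote in acetone incorporated into silt loam soil covering the corn seed bed, with giant foxtail and velvetleaf; initial overhead irrigation equal to 0.6 cm rainfall, then sub-irrigation. Antidote at 2.24 kg/ha; percent injury read 13 days after application, duplicate average.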

corn = assay: as above; details: Zea mays
How it was run: as §3

[8] = Herbicide No.1 0.14 + No.7 4.48 kg/ha, no antidote
[9] = Herbicide No.1 0.14 kg/ha alone
[10] = Herbicide No.1 0.56 + No.7 (alachlor) 4.48 kg/ha, no antidote, average of duplicates
[11] = Herbicide No.1 0.56 kg/ha alone
[12] = Herbicide No.1 1.12 kg/ha alone

COC(=O)c1c(Cl)nn(C)c1S(=O)(=O)NC(=O)Nc1nc(OC)cc(OC)n1 [Herbicide No. 1]
% Injury BYG [1, 8]: 100% | % Injury BYG [1, 9]: 20% | % Injury BYG [1, 10]: 100% | % Injury BYG [1, 11]: 70% | % Injury VL [2, 8]: 70% | % Injury VL [2, 9]: 40% | % Injury VL [2, 10]: 85% | % Injury VL [2, 11]: 60% | % Injury BYG [3, 9]: 75% | % Injury BYG [3, 11]: 80% | % Injury VL [4, 9]: 70% | % Injury VL [4, 11]: 75% | % Injury BYG [5, 11]: 75% | % Injury BYG [5, 12]: 80% | % Injury VL [6, 11]: 75% | % Injury VL [6, 12]: 80% | inhibition at 1120 g/ha ([7]; read-out: % Inhibition GFT, Herb. No. 1 0.07 Kg/ha + Co-Herb. No. 4 1.12 Kg/ha, no antidote): 70% | inhibition at 140 g/ha ([7]; read-out: % Inhibition GFT, Herb. No. 1 0.07 Kg/ha + Co-Herb. No. 6 0.14 Kg/ha, no antidote): 100% | inhibition at 280 g/ha ([7]; read-out: % Inhibition GFT, Herb. No. 1 0.07 Kg/ha + Co-Herb. No. 7 0.28 Kg/ha, no antidote): 100% | inhibition at 280 g/ha ([7]; read-out: % Inhibition GFT, Herb. No. 1 0.07 Kg/ha + Co-Herb. No. 12 0.28 Kg/ha, no antidote): 99% | inhibition at 1120 g/ha ([7]; read-out: % Inhibition GFT, Herb. No. 1 0.14 Kg/ha + Co-Herb. No. 4 1.12 Kg/ha, no antidote): 80% | inhibition at 140 g/ha ([7]; read-out: % Inhibition GFT, Herb. No. 1 0.14 Kg/ha + Co-Herb. No. 6 0.14 Kg/ha, no antidote): 100% | inhibition at 280 g/ha ([7]; read-out: % Inhibition GFT, Herb. No. 1 0.14 Kg/ha + Co-Herb. No. 7 0.28 Kg/ha, no antidote): 100% | inhibition at 280 g/ha ([7]; read-out: % Inhibition GFT, Herb. No. 1 0.14 Kg/ha + Co-Herb. No. 12 0.28 Kg/ha, no antidote): 99% | inhibition at 1120 g/ha ([7]; read-out: % Inhibition GFT, Herb. No. 1 0.28 Kg/ha + Co-Herb. No. 4 1.12 Kg/ha, no antidote): 85% | inhibition at 140 g/ha ([7]; read-out: % Inhibition GFT, Herb. No. 1 0.28 Kg/ha + Co-Herb. No. 6 0.14 Kg/ha, no antidote): 100% | inhibition at 280 g/ha ([7]; read-out: % Inhibition GFT, Herb. No. 1 0.28 Kg/ha + Co-Herb. No. 7 0.28 Kg/ha, no antidote): 100% | inhibition at 280 g/ha ([7]; read-out: % Inhibition GFT, Herb. No. 1 0.28 Kg/ha + Co-Herb. No. 12 0.28 Kg/ha, no antidote): 99% | inhibition at 1120 g/ha ([7]; read-out: % Inhibition GFT, Herb. No. 1 0.56 Kg/ha + Co-Herb. No. 4 1.12 Kg/ha, no antidote): 75% | inhibition at 140 g/ha ([7]; read-out: % Inhibition GFT, Herb. No. 1 0.56 Kg/ha + Co-Herb. No. 6 0.14 Kg/ha, no antidote): 100% | inhibition at 280 g/ha ([7]; read-out: % Inhibition GFT, Herb. No. 1 0.56 Kg/ha + Co-Herb. No. 7 0.28 Kg/ha, no antidote): 99% | inhibition at 280 g/ha ([7]; read-out: % Inhibition GFT, Herb. No. 1 0.56 Kg/ha + Co-Herb. No. 12 0.28 Kg/ha, no antidote): 99% | inhibition at 1120 g/ha (corn; read-out: % Inhibition Corn, Herb. No. 1 0.07 Kg/ha + Co-Herb. No. 4 1.12 Kg/ha, no antidote): 10% | inhibition at 140 g/ha (corn; read-out: % Inhibition Corn, Herb. No. 1 0.07 Kg/ha + Co-Herb. No. 6 0.14 Kg/ha, no antidote): 5% | inhibition at 280 g/ha (corn; read-out: % Inhibition Corn, Herb. No. 1 0.07 Kg/ha + Co-Herb. No. 7 0.28 Kg/ha, no antidote): 5% | inhibition at 280 g/ha (corn; read-out: % Inhibition Corn, Herb. No. 1 0.07 Kg/ha + Co-Herb. No. 12 0.28 Kg/ha, no antidote): 5% | inhibition at 1120 g/ha (corn; read-out: % Inhibition Corn, Herb. No. 1 0.14 Kg/ha + Co-Herb. No. 4 1.12 Kg/ha, no antidote): 20% | inhibition at 140 g/ha (corn; read-out: % Inhibition Corn, Herb. No. 1 0.14 Kg/ha + Co-Herb. No. 6 0.14 Kg/ha, no antidote): 20% | inhibition at 280 g/ha (corn; read-out: % Inhibition Corn, Herb. No. 1 0.14 Kg/ha + Co-Herb. No. 7 0.28 Kg/ha, no antidote): 15% | inhibition at 280 g/ha (corn; read-out: % Inhibition Corn, Herb. No. 1 0.14 Kg/ha + Co-Herb. No. 12 0.28 Kg/ha, no antidote): 10% | inhibition at 1120 g/ha (corn; read-out: % Inhibition Corn, Herb. No. 1 0.28 Kg/ha + Co-Herb. No. 4 1.12 Kg/ha, no antidote): 25% | inhibition at 140 g/ha (corn; read-out: % Inhibition Corn, Herb. No. 1 0.28 Kg/ha + Co-Herb. No. 6 0.14 Kg/ha, no antidote): 25% | inhibition at 280 g/ha (corn; read-out: % Inhibition Corn, Herb. No. 1 0.28 Kg/ha + Co-Herb. No. 7 0.28 Kg/ha, no antidote): 30% | inhibition at 280 g/ha (corn; read-out: % Inhibition Corn, Herb. No. 1 0.28 Kg/ha + Co-Herb. No. 12 0.28 Kg/ha, no antidote): 30% | inhibition at 1120 g/ha (corn; read-out: % Inhibition Corn, Herb. No. 1 0.56 Kg/ha + Co-Herb. No. 4 1.12 Kg/ha, no antidote): 40% | inhibition at 140 g/ha (corn; read-out: % Inhibition Corn, Herb. No. 1 0.56 Kg/ha + Co-Herb. No. 6 0.14 Kg/ha, no antidote): 40% | inhibition at 280 g/ha (corn; read-out: % Inhibition Corn, Herb. No. 1 0.56 Kg/ha + Co-Herb. No. 7 0.28 Kg/ha, no antidote): 45% | inhibition at 280 g/ha (corn; read-out: % Inhibition Corn, Herb. No. 1 0.56 Kg/ha + Co-Herb. No. 12 0.28 Kg/ha, no antidote): 45%
